Patent publication US20210023089A1, “Compositions Useful for Treating Herpes Simplex Keratitis, and Methods Using Same” (priority 2013, published 2021)

Experiments:
ATM [1] = experiment: ATM activation (pChk2 Western blot) in HSV-1 infected hTCEpi cells; format: cell-based, human; settings: for effect on ATM activation (pChk2 staining): hTCEpi infected with HSV-1 at a range of MOIs, 1 hpi, PAA 400 μg/ml, CHX 5 μg/ml
Method: Standard protocol was followed for Western blot analysis. Cell lysates were collected in Laemmli buffer, vortexed, and boiled at 95° C. for 5 min. Protein concentrations were measured by reducing agent-compatible BCA assay. SDS-PAGE was followed by transfer onto a PVDF membrane, which was then blocked in 5% BSA. Primary antibody staining was performed overnight and blots were visualized on film or with the Odyssey near-infrared system (LI-COR, Lincoln, Nebr.). Primary antibodies against the following proteins were used: ICP0 (Virusys Corporation, Taneytown, Md.), ICP4, PML, and nucleolin (Santa Cruz Biotechnology, Santa Cruz, Calif.), ICP8, glycoproteins B and C, ATM and pATM-Ser1981 (Rockland, Gilbertsville, Pa.), Chk2 and pChk2-Thr68 (Cell Signaling, Danvers, Mass.).
(§1) hTCEpi, EPC2, and OKF6 are normal human epithelial cells from cornea, esophagus, and palate, respectively. HEK293 are human embryonic kidney epithelial cells. Cells were treated with tissue culture grade KU-55933 (10 μM), cycloheximide (5 μg/ml), phosphonoacetic acid (400 μg/ml), and H2O2 (150 μM). Viral particles were pre-treated with UV light at 0.2 J/cm^2.
Cultured cells were infected by applying the desired viral load in an inoculum volume equal to 10% of the normal volume of growth medium. During infection, cells were maintained at 37° C. and 5% CO2 and rocked every 10-15 min for 1 hour. Cells were then rinsed thoroughly with PBS and overlaid with fresh medium. For synchronized infections, virus was allowed to adsorb to cells while rocking at 4° C. After 1 hour, cells were transferred to 37° C. and 5% CO2 to initiate synchronized infection.

ATM [2] = experiment: pATM immunofluorescence in HEK293 cells transfected with purified HSV-1 genome; format: cell-based, human; settings: HEK293 transfected with HSV-1 KOS genome, PAA for 24 hours
Method: Transfection of plasmids was done with GenDrill (BamaGen, Gaithersburg, Md.), whereas transfection of BACs was accomplished with Lipofectamine transfection reagent (Invitrogen, Carlsbad, Calif.). All transfections followed standard protocols and manufacturer's instructions. Medium was changed at 6 hour post transfection.
Cells were grown on cover slips, treated as indicated, fixed in 3% paraformaldehyde/2% sucrose solution for 10 min, and permeabilized with 0.5% Triton X-100 for 5 min. Indirect immunofluorescence was performed with primary antibodies overnight followed by secondary antibody staining for 2 hours. Primary antibodies were the same as those used for Western blotting. Nuclei were counterstained with […] of Höchst 33258.
as §1

[3] = system: dlsptk strain of HSV-1 (TK mutant); experiment: qPCR of genome replication of drug-resistant HSV-1 in hTCEpi cells; format: cell-based; settings: MOI 0.1, 16 hpi, KU-55933 10 μM, acyclovir 50 μg/mL
Method: All cells were cultured at 37° C. and 5% CO2 and supplemented with 100 U/mL penicillin and […]. Human corneal epithelial cells immortalized with hTERT (hTCEpi; Robertson, et al., 2005, Invest Ophthalmol Vis Sci. 46:470-478) were grown in complete keratinocyte growth medium 2 (KGM-2; Lonza, Basel, Switzerland). African green monkey kidney fibroblasts (CV-1; American Type Culture Collection, Manassas, Va.) were grown in Dulbecco's modified Eagle's medium (DMEM; Cellgro, Manassas, Va.) supplemented with 10% FBS. The KOS strain of HSV-1 was used in the in vitro and ex vivo infections, whereas McKrae strain was used for in vivo mouse experiments, and TK mutant dlsptk strain (Coen et al., 1989, Proc Natl Acad Sci USA 86:4736-4740) was used in the drug resistance experiments. All viral stocks were titered on CV-1 monolayers.
The following strains of HSV-1 were used: KOS, ICPO-null, HFEM, and tsB7. Subconfluent monolayers of cells were grown in six-well plates. Drug treatments were administered 45 minutes prior to infection and continued for the entire duration of each experiment. Unless indicated otherwise, KU-55933 (Batch No. 5, 99.7% purity; Tocris Bioscience, Bristol, UK) was used at 10 μM final concentration, phosphonoacetic acid (PAA) at 400 μg/mL (Sigma-Aldrich, St. Louis, Mo.), and acyclovir at 50 μg/mL (Sigma-Aldrich). KU-55933 was dissolved in dimethyl sulfoxide (DMSO), and the final concentration of DMSO in both KU-55933 and mock treatment in the in vitro and the ex vivo experiments was 0.1%.
Viral genome replication and transcription were measured by quantitative PCR (qPCR). Total DNA and RNA from infected cells were isolated using the DNeasy Blood & Tissue Kit and the RNeasy Mini Kit, respectively (QIAGEN, Hilden, Germany). RNA was converted to cDNA using qScript (Quanta BioSciences, Gaithersburg, Md.). […] Transcription of the three gene families was measured with primers for RL2 (ICPO), UL30 (DNA polymerase catalytic subunit), and UL44 (gC), with reference primers for the 18S ribosomal RNA (rRNA).

ATM [4] = biological target: T1, ATM (Homo sapiens, UniProt Q13315); experiment: pATM Western blot in bleomycin-damaged ex vivo human corneas (bioavailability); format: cell-based; settings: bleomycin 200 μg/mL 1 hour, KU-55933 10 μM 1 hour pretreatment
T1 construct: The epithelial layers were collected for protein lysates and analyzed by Western blot with antibodies against pATM (Ser1981) and total ATM; tissue Lions Eye Bank of Delaware Valley; host or cells: epithelial layer of explanted human corneas
T1 sequence (Q13315 whole entry): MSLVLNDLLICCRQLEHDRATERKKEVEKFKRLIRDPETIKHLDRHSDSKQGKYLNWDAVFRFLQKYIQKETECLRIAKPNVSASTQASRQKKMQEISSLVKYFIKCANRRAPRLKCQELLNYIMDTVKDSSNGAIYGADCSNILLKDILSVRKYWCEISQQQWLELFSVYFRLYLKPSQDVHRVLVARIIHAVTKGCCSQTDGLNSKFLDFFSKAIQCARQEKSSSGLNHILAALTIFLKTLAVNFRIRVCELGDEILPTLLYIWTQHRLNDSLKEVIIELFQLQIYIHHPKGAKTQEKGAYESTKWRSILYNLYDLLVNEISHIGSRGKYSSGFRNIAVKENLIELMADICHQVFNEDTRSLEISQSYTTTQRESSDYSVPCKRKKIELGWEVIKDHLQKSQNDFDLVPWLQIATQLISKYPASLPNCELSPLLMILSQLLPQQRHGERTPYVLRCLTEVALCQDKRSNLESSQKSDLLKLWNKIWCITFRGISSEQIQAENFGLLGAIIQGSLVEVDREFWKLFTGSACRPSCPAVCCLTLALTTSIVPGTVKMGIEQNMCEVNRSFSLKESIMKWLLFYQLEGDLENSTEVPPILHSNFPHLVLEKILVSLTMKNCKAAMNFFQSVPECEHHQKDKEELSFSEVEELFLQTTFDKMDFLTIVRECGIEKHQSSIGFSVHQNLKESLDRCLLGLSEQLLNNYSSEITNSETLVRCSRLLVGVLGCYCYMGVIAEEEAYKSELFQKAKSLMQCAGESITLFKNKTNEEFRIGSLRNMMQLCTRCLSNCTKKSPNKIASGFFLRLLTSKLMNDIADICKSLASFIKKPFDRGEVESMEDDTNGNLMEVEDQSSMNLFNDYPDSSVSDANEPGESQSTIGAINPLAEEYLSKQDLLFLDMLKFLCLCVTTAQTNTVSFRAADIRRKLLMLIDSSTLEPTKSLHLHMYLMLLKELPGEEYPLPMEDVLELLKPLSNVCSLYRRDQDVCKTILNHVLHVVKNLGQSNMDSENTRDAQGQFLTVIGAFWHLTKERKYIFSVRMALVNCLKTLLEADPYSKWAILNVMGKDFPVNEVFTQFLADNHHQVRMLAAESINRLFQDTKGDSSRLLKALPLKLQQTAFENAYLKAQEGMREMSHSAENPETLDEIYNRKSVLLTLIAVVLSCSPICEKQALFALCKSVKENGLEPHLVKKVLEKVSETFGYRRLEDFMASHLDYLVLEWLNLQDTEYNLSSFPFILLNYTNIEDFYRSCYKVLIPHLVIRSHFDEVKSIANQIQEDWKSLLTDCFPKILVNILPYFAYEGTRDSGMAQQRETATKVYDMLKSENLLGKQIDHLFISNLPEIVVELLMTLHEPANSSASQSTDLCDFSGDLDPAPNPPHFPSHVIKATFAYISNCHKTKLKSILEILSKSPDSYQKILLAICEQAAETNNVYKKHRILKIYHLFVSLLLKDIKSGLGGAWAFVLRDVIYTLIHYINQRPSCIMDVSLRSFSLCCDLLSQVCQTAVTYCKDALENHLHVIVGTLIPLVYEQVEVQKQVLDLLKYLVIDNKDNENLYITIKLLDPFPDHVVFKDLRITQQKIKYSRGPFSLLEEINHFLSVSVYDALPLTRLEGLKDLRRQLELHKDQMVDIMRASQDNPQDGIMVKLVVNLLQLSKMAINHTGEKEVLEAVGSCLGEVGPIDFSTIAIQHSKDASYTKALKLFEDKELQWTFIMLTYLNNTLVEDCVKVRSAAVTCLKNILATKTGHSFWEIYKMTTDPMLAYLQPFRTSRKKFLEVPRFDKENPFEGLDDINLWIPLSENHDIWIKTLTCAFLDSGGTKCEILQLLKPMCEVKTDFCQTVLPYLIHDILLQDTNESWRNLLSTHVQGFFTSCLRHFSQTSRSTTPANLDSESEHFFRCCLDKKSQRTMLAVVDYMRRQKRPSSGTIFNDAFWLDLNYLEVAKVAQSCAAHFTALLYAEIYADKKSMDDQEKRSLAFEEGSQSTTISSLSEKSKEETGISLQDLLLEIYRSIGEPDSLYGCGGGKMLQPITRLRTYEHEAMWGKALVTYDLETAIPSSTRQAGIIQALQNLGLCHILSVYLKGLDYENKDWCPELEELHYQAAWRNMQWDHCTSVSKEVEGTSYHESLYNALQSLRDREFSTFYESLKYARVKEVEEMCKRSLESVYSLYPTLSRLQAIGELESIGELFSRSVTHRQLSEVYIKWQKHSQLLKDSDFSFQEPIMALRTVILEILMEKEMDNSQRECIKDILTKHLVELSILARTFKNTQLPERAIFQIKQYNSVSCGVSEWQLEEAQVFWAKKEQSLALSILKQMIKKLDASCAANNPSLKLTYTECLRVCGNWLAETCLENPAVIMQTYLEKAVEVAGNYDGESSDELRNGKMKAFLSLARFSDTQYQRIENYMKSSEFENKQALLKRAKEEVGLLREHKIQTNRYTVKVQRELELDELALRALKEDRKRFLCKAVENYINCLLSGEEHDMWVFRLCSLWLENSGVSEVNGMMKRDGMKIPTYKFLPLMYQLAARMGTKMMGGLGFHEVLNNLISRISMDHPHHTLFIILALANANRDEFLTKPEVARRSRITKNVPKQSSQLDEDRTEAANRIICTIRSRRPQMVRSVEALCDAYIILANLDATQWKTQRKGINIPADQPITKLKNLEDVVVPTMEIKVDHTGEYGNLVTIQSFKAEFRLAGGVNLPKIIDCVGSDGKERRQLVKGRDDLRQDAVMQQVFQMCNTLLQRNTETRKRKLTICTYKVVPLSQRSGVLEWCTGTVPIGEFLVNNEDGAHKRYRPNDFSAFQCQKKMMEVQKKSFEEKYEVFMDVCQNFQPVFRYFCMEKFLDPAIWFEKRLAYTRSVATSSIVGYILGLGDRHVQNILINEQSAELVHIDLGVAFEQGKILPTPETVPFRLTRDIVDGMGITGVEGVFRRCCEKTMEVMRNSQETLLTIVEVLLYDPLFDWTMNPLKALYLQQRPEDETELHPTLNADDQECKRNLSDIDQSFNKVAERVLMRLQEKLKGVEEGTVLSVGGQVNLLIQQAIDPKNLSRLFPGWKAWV
Method: Human corneas were obtained from the Lions Eye Bank of Delaware Valley. Rabbit corneas were excised from intact fresh eyeballs of young (8-12 weeks) albino rabbits (Pel-Freez Biologicals, Rogers, Ark.). Protocol (Alekseev et al., 2012, J Vis Exp 69:e3631) for ex vivo corneal culture, infection, and treatment was followed closely. Briefly, corneoscleral buttons were excised and rinsed in PBS containing 200 U/mL penicillin and 200 μg/mL streptomycin. The endothelial concavity was filled with culture medium containing 1% low melting temperature agarose. The corneas were cultured epithelial side up in MEM medium supplemented with nonessential amino acids (1×), 2 mM […], 200 U/mL penicillin, and 200 μg/mL streptomycin. The next day, they were infected with 1×10^4 plaque forming units (PFU)/cornea of strain KOS HSV-1 for 1 hour, rinsed, and overlaid with fresh medium. Drug treatments were administered at the same concentrations as for cultured cells. For KU-55933 bioavailability assessment, corneas were treated with bleomycin (200 μg/mL) for 1 hour. […] Treatment toxicity was assessed by briefly staining the cornea with fluorescein (1% wt/vol in PBS) and imaging the epithelial defects with 464-nm wavelength blue light (LDP LLC, Carlstadt, N.J.).
Standard protocol was followed for Western blot analysis. […] Protein concentrations were measured by bicinchoninic acid (BCA) assay. […]

## C[C@@H]1C[C@@H]([C@H](O)CC2CC(=O)NC(=O)C2)C(=O)[C@@H](C)C1 [CHX, cycloheximide]
ATM [1]; PML-depleted hTCEpi cells, compared with WT hTCEpi cells
  effect on pChk2 staining in PML-depleted cells: same partial reduction
ATM [1]
  effect on ATM activation (pChk2 staining): partial inhibitory effect
ATM [1]; hTCEpi infected with d120, CHX 5 μg/ml
  effect on ATM activation by d120 (ICP4-null strain): not affected

## O=C(O)CP(=O)(O)O [PAA, phosphonoacetic acid]
ATM [1]
  effect on ATM activation (pChk2 staining): no effect
ATM [2]
  ATM activation (pATM staining) in treated transfected cells: not hindered in ATM activation

## Nc1nc2c(ncn2COCCO)c(=O)[nH]1 [acyclovir]
[3]
  genome replication of dlsptk strain (qPCR): largely unresponsive

## bleomycin
ATM [4]
  pATM level in corneal epithelium: high level of pATM
